The subject of the assay is Beet Armyworm (Spodoptera exigua). Kind of assay: Bioassays on BAW, 128-well diet tray assay. The settings on record: percent mortality, second instar larvae, 50 μg/cm^2 on artificial diet, five to seven days, 25° C.; Table 3. Format: in vivo. The method, then: Certain molecules disclosed in this document were tested against BAW and CEW and CL using procedures described in the following examples. In the reporting of the results, the “BAW & CEW & CL Rating Table” was used (See Table Section).
Bioassays on BAW (Spodoptera exigua)
Bioassays on BAW were conducted using a 128-well diet tray assay. one to five second instar BAW larvae were placed in each well (3 mL) of the diet tray that had been previously filled with 1 mL of artificial diet to which 50 μg/cm^2 of the test compound (dissolved in 50 μL of 90:10 acetone-water mixture) had been applied (to each of eight wells) and then allowed to dry. Trays were covered with a clear self-adhesive cover, and held at 25° C., 14:10 light-dark for five to seven days. Percent mortality was recorded for the larvae in each well; activity in the eight wells was then averaged. The results are indicated in the table entitled “Table 3: Assay Results” (See Table Section).

For the compound `FC(F)(F)C(/C=C/c1ccc(CNc2ccccn2)c(Cl)c1)c1cc(Cl)c(Cl)c(Cl)c1` (stereo not shown) [CC43, (E)-N-(2-Chloro-4-(4,4,4-trifluoro-3-(3,4,5-trichlorophenyl)but-1-en-1-yl)benzyl)pyridin-2-amine], the “BAW Rating” value was “A (50-100)”.

For the compound `FC(F)(F)CNC(=S)CNC(=S)c1ccc(/C=C/C(c2cc(Cl)c(Cl)c(Cl)c2)C(F)(F)F)cc1Br` (stereo not shown) [AC90, (E)-2-Bromo-N-(2-thioxo-2-((2,2,2-trifluoroethyl)amino)ethyl)-4-(4,4,4-trifluoro-3-(3,4,5-trichlorophenyl)but-1-en-1-yl)benzothioamide], the “BAW Rating” value is “A (50-100)”.

For the compound `O=C(C1CC1)N(Cc1ccccn1)Cc1ccc(/C=C/C(c2cc(Cl)c(Cl)c(Cl)c2)C(F)(F)F)cc1C(F)(F)F` (stereo not shown) [CC29, (E)-N-(Pyridin-2-ylmethyl)-N-(4-(4,4,4-trifluoro-3-(3,4,5-trichlorophenyl)but-1-enyl)-2-(trifluoromethyl)benzyl)cyclopropanecarboxamide], the “BAW Rating” value is given as “A (50-100)”.

As for `Cc1cc(/C=C/C(c2cc(Cl)cc(Cl)c2)C(F)(F)F)ccc1-n1cncn1` (stereo not shown) [DC62], the “BAW Rating” value was “A (50-100)”.

`Cc1cc(/C=C/C(c2cc(Cl)c(F)c(Cl)c2)C(F)(F)F)ccc1C(=O)NC1CCOCC1` (stereo not shown) [AC52]: the “BAW Rating” value is on record as “A (50-100)”.

For the compound `O=C(CNC(=O)c1ccc(/C=C/C(c2cc(Cl)cc(Cl)c2)C(F)(F)F)cc1F)NCC(F)(F)F` (stereo not shown) [AC62], the “BAW Rating” value was “A (50-100)”.

As to `O=C(NC1CS(=O)(=O)C1)c1ccc(/C=C/C(c2cc(Cl)cc(Cl)c2)C(F)(F)F)cc1F` (stereo not shown) [AC83, (E)-4-(3-(3,5-Dichlorophenyl)-4,4,4-trifluorobut-1-en-1-yl)-N-(1,1-dioxidothietan-3-yl)-2-fluorobenzamide], the “BAW Rating” value is recorded as “A (50-100)”.

Consider `O=C(NCc1ccc(Cl)nc1)c1ccc(/C=C/C(c2cc(Cl)c(F)c(Cl)c2)C(F)(F)F)cc1F` (stereo not shown) [AC65], for which the “BAW Rating” value was “A (50-100)”.

On to `O=C(NCc1ccc(/C=C/C(c2cc(Cl)c(Cl)c(Cl)c2)C(F)(F)F)cc1F)C1CC1` (stereo not shown) [CC28], for which the “BAW Rating” value is “A (50-100)”.

In the case of `Cc1cc(/C=C/C(c2cc(Cl)cc(Cl)c2)C(F)(F)F)ccc1C(=O)NC(C)(C)c1ccccn1` (stereo not shown) [AC16], the “BAW Rating” value is “A (50-100)”.

Consider `Cc1cc(/C=C/C(c2cc(Cl)c(Cl)c(Cl)c2)C(F)(F)F)ccc1C(=O)NCc1cnc(Cl)s1` (stereo not shown) [AC26], for which the “BAW Rating” value is given as “A (50-100)”.

For the compound `Cc1cc(/C=C/C(c2cc(Cl)cc(Cl)c2)C(F)(F)F)ccc1C(=O)N(C)Cc1ccc(Cl)nc1` (stereo not shown) [AC117], the “BAW Rating” value was “A (50-100)”.

Regarding `O=C(CNC(=O)c1ccc(/C=C/C(c2ccc(F)c(Cl)c2)C(F)(F)F)cc1Br)NCC(F)(F)F` (stereo not shown) [AC99], the “BAW Rating” value is on record as “A (50-100)”.

As for `O=C(NC1CS(=O)(=O)C1)c1ccc(/C=C/C(c2cc(Cl)c(Cl)c(Cl)c2)C(F)(F)F)cc1C(F)(F)F` (stereo not shown) [AC35], the “BAW Rating” value was “A (50-100)”.

As to `O=C(NC1CS(=O)(=O)C1)c1ccc(/C=C/C(c2cc(Cl)c(F)c(Cl)c2)C(F)(F)F)cc1F` (stereo not shown) [AC84], the “BAW Rating” value is “A (50-100)”.

Take `Cc1cc(C)cc(C(/C=C/c2ccc(-n3cncn3)cc2)C(F)(F)F)c1` (stereo not shown) [DC11]: the “BAW Rating” value is given as “A (50-100)”.

`O=C(CC(F)(F)F)NCc1ccc(/C=C/C(c2cc(Cl)c(Cl)c(Cl)c2)C(F)(F)F)cc1` (stereo not shown) [CC6]: the “BAW Rating” value was “A (50-100)”.

Turning to `O=C(NCC(=S)NCC(F)(F)F)c1ccc(/C=C/C(c2cc(Cl)c(Cl)c(Cl)c2)C(F)(F)F)cc1Br` (stereo not shown) [AC92, (E)-2-Bromo-N-(2-thioxo-2-((2,2,2-trifluoroethyl)amino)ethyl)-4-(4,4,4-trifluoro-3-(3,4,5-trichlorophenyl)but-1-en-1-yl)benzamide], the “BAW Rating” value was “A (50-100)”.

For `Cc1cc(/C=C/C(c2cc(Cl)c(F)c(Cl)c2)C(F)(F)F)ccc1C(=O)NCc1ccc(Cl)cn1` (stereo not shown) [AC53], the “BAW Rating” value was “A (50-100)”.

Regarding `CNc1cc(/C=C/C(c2cc(Cl)cc(Cl)c2)C(F)(F)F)ccc1-n1cncn1` (stereo not shown) [DC57, (E)-5-(3-(3,5-Dichlorophenyl)-4,4,4-trifluorobut-1-en-1-yl)-N-methyl-2-(1H-1,2,4-triazol-1-yl)aniline], the “BAW Rating” value was “A (50-100)”.

Turning to `O=C(NC1CS(=O)(=O)C1)c1ccc(/C=C/C(c2cc(Cl)c(Cl)c(Cl)c2)C(F)(F)F)cc1Br` (stereo not shown) [AC33], the “BAW Rating” value was “A (50-100)”.

Regarding `COc1c(Cl)cc(C(/C=C/c2ccc(-n3cncn3)cc2)C(F)(F)F)cc1Cl` (stereo not shown) [DC20], the “BAW Rating” value is on record as “A (50-100)”.

`Fc1ccc(C(/C=C/c2ccc(-n3cncn3)cc2)C(F)(F)F)cc1` (stereo not shown) [DC7]: the “BAW Rating” value is reported as “A (50-100)”.

Regarding `Cc1cc(/C=C/C(c2cc(Cl)cc(Cl)c2)C(F)(F)F)ccc1C(=O)NCc1ccc(Cl)cc1` (stereo not shown) [AC48], the “BAW Rating” value is given as “A (50-100)”.

With `O=C(Cc1ccc(Cl)nc1)NC1CCc2cc(/C=C/C(c3cc(Cl)c(F)c(Cl)c3)C(F)(F)F)ccc21` (stereo not shown) [BC9], the “BAW Rating” value is “A (50-100)”.

Consider `FC(F)(F)C(/C=C/c1ccc(-n2cncn2)c(Cl)c1)c1cc(Cl)cc(Cl)c1` (stereo not shown) [DC50], for which the “BAW Rating” value is “A (50-100)”.

On to `O=C(NCc1ccc(/C=C/C(c2cc(Cl)c(Cl)c(Cl)c2)C(F)(F)F)cc1C(F)(F)F)c1cccnc1` (stereo not shown) [CC23], for which the “BAW Rating” value is listed as “A (50-100)”.

For `N#Cc1cc(/C=C/C(c2cc(Cl)c(Cl)c(Cl)c2)C(F)(F)F)ccc1-n1cnc([N+](=O)[O-])n1` (stereo not shown) [DC40, (E)-2-(3-Nitro-1H-1,2,4-triazol-1-yl)-5-(4,4,4-trifluoro-3-(3,4,5-trichlorophenyl)but-1-en-1-yl)benzonitrile], the “BAW Rating” value was “A (50-100)”.

Regarding `Cc1cc(/C=C/C(c2cc(Cl)c(Cl)c(Cl)c2)C(F)(F)F)cc(C#N)c1-n1cncn1` (stereo not shown) [DC45], the “BAW Rating” value is “A (50-100)”.

As for `Cc1cc(/C=C/C(c2cc(Cl)cc(Cl)c2)C(F)(F)F)ccc1C(=O)NCc1cnc(Cl)s1` (stereo not shown) [AC15], the “BAW Rating” value is “A (50-100)”.

On to `CCOC(=O)c1cc(/C=C/C(c2cc(Cl)cc(Cl)c2)C(F)(F)F)ccc1-n1cncn1` (stereo not shown) [DC60], for which the “BAW Rating” value is reported as “A (50-100)”.

Consider `O=C(CC(F)(F)F)NCc1ccc(/C=C\C(c2cc(Cl)c(Cl)c(Cl)c2)C(F)(F)F)cc1` (stereo not shown) [CC54, (Z)-3,3,3-Trifluoro-N-(4-(4,4,4-trifluoro-3-(3,4,5-trichlorophenyl)but-1-en-1-yl)benzyl)propanamide], for which the “BAW Rating” value was “A (50-100)”.

`O=C(CC(F)(F)F)NCc1ncc(/C=C/C(c2cc(Cl)c(Cl)c(Cl)c2)C(F)(F)F)cc1Cl` (stereo not shown) [CC44, (E)-N-((3-Chloro-5-(4,4,4-trifluoro-3-(3,4,5-trichlorophenyl)-but-1-en-1-yl)pyridin-2-yl)methyl)-3,3,3-trifluoropropanamide]: the “BAW Rating” value is on record as “A (50-100)”.

As for `O=C(CC(F)(F)F)NCc1ccc(/C=C/C(c2cc(Cl)c(Cl)c(Cl)c2)C(F)(F)F)cc1F` (stereo not shown) [CC27], the “BAW Rating” value is “A (50-100)”.

In the case of `CCc1cc(/C=C/C(c2cc(Cl)c(F)c(Cl)c2)C(F)(F)F)ccc1C(=O)NCc1ccc(Cl)nc1` (stereo not shown) [AC72], the “BAW Rating” value is recorded as “A (50-100)”.

For the compound `Cc1cc(/C=C/C(c2cc(Cl)cc(Cl)c2)C(F)(F)F)cc(C#N)c1-n1cncn1` (stereo not shown) [DC44], the “BAW Rating” value was “A (50-100)”.

Regarding `CN1CCC(NC(=O)c2ccc(/C=C/C(c3cc(Cl)c(Cl)c(Cl)c3)C(F)(F)F)cc2Br)CC1` (stereo not shown) [AC106, (E)-2-Bromo-N-(1-methylpiperidin-4-yl)-4-(4,4,4-trifluoro-3-(3,4,5-trichlorophenyl)but-1-en-1-yl)benzamide], the “BAW Rating” value is “A (50-100)”.

In the case of `O=C(NC1CCN(C2COC2)CC1)c1ccc(/C=C/C(c2cc(Cl)c(Cl)c(Cl)c2)C(F)(F)F)cc1Br` (stereo not shown) [AC108, (E)-2-Bromo-N-(1-(oxetan-3-yl)piperidin-4-yl)-4-(4,4,4-trifluoro-3-(3,4,5-trichlorophenyl)but-1-en-1-yl)benzamide], the “BAW Rating” value is “B (More than 0-Less than 50)”.

For `N#Cc1cc(/C=C/C(c2cc(Cl)c(Cl)c(Cl)c2)C(F)(F)F)ccc1-n1cnc(N)n1` (stereo not shown) [DC41, (E)-2-(3-Amino-1H-1,2,4-triazol-1-yl)-5-(4,4,4-trifluoro-3-(3,4,5-trichlorophenyl)but-1-en-1-yl)benzonitrile], the “BAW Rating” value was “A (50-100)”.

On to `O=C(NCc1ccc(/C=C/C(c2ccc(Cl)c(Cl)c2)C(F)(F)F)cc1Cl)C1CC1` (stereo not shown) [CC17], for which the “BAW Rating” value is “A (50-100)”.

Take `Cc1cc(/C=C/C(c2cc(Cl)cc(Cl)c2)C(F)(F)F)ccc1C(=O)NCc1nc2ccccc2s1` (stereo not shown) [AC42]: the “BAW Rating” value is given as “A (50-100)”.

For the compound `O=C(CC(F)(F)F)NCC(=O)n1ccc2cc(/C=C/C(c3cc(Cl)c(F)c(Cl)c3)C(F)(F)F)ccc21` (stereo not shown) [BC13, (E)-N-(2-(5-(3-(3,5-Dichloro-4-fluorophenyl)-4,4,4-trifluorobut-1-en-1-yl)-1H-indol-1-yl)-2-oxoethyl)-3,3,3-trifluoropropanamide], the “BAW Rating” value was “A (50-100)”.

For `O=C(NCc1ccc(/C=C/C(c2cc(Cl)cc(Cl)c2)C(F)(F)F)cc1C(F)(F)F)C1CC1` (stereo not shown) [CC21], the “BAW Rating” value is recorded as “A (50-100)”.

As to `O=C(NC1CCN(C(=O)CC(F)(F)F)CC1)c1ccc(/C=C/C(c2cc(Cl)c(Cl)c(Cl)c2)C(F)(F)F)cc1Br` (stereo not shown) [AC104, (E)-2-Bromo-4-(4,4,4-trifluoro-3-(3,4,5-trichlorophenyl)but-1-en-1-yl)-N-(1-(3,3,3-trifluoropropanoyl)piperidin-4-yl)benzamide], the “BAW Rating” value is “A (50-100)”.

On to `Cc1cc(/C=C/C(c2cc(Cl)cc(Cl)c2)C(F)(F)F)ccc1C(=O)NCC(=O)NC1CS(=O)(=O)C1` (stereo not shown) [AC81], for which the “BAW Rating” value is on record as “A (50-100)”.

As for `N#Cc1cc(/C=C/C(c2cc(Cl)cc(Cl)c2)C(F)(F)F)ccc1-n1cnc([N+](=O)[O-])n1` (stereo not shown) [DC37], the “BAW Rating” value is “A (50-100)”.

For the origin of these results see patent US9635859B2, “Pesticidal compositions and processes related thereto” (Dow AgroSciences LLC, priority 2012, dated 2017).
